Measured values published in publication PMC3710586 (NeuroImage, 2010).
pIC50, pKd: −log10 of the molar value. Values joined by “and” are separate entries in the source; they are usually repeats but may differ in a detail not shown here. Identical values can stand only once. “Also recorded” adds a separate entry of the source. Like-named read-outs stand apart in the source and are kept apart here.

How the values were obtained:
ATX plasma levels = format: in vivo, rhesus monkey
[1] = rats; ref Mattiuz et al., 2003; Kielbasa et al., 2009; cited from earlier work
[2] = dogs; ref Mattiuz et al., 2003; cited from earlier work
[3] = humans; ref Sauer et al., 2003; cited from earlier work
[4] = test system: norepinephrine transporters (NET); conditions: rhesus monkeys, cited from earlier work
[5] = test system: norepinephrine transporters (NET); conditions: humans, cited from earlier work
[6] = humans, ref Logan et al., 2007, cited from earlier work
[7] = target: norepinephrine transporters (NET) (Macaca mulatta, UniProt Q9MYW8)
norepinephrine transporters (NET) (Macaca mulatta, UniProt Q9MYW8), sequence (Q9MYW8 1-617): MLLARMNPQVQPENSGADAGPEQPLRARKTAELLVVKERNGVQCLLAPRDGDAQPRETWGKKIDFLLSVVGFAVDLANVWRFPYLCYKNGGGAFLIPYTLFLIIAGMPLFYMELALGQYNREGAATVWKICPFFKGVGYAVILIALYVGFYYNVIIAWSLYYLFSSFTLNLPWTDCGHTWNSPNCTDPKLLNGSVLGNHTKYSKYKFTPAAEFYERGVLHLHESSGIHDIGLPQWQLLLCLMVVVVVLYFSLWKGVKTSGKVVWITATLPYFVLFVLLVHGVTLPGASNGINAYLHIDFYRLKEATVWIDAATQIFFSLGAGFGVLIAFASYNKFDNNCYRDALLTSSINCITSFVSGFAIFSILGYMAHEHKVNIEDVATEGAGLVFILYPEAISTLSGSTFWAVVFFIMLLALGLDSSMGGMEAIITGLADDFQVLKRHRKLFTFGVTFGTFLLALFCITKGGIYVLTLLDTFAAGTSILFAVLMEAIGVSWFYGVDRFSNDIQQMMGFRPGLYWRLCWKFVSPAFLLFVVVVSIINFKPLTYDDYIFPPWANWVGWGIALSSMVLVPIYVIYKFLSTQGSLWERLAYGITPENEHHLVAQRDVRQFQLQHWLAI

[8] = target: norepinephrine transporters (Homo sapiens, UniProt P23975); conditions: read-out: MRB dissociation constant Kd, in vitro; ref Melloni et al., 1984; cited from earlier work
norepinephrine transporters, sequence (P23975 whole entry): as the sequence (Q9MYW8 1-617) above, with S15N, A19T, V246I, I410V, I427V, G452S, V606I counted along it

[9] = [11C]MRB arterial input function and plasma metabolite analysis; format: in vivo, rhesus monkey; conditions: for Fraction of unmetabolized [11C]MRB in plasma: n=10
[10] = [11C]MRB plasma free fraction by ultrafiltration; format: in vitro ADME, rhesus monkey
[11] = test system: norepinephrine transporters (NET); conditions: for Global VND/fP estimate (four NET-rich regions): Eq. 5, shared across regions, rSE 22%
[12] = rhesus monkey, read-out: Percentage of occupancy of NET by ATX
[13] = ATX low dose, Day 2, MA1, one row per monkey
[14] = ATX medium dose, Day 1, MA1, one row per monkey
[15] = Baseline, Day 1, MA1, one row per monkey
[16] = after 40 mg of methylphenidate, n=9, ref Hannestad et al., 2010

## CNCC[C@@H](Oc1ccccc1C)c1ccccc1 [ATX, atomoxetine]
ATX plasma levels; mono-exponential fit of 0-, 60-, 120-min samples
  Percent change per hour of ATX plasma level during the PET scan: −1±6 %/h
ATX plasma levels; r^2=0.902, n=7, intercept set to zero
  Slope of regression of ATX plasma level versus maintenance infusion rate: 1.04 kg·h/L and 1.042 kg·h/L
[1]
  Plasma free fraction of ATX: 11–13%
[2]
  Plasma free fraction of ATX: 3%
[3]
  Plasma free fraction of ATX: 1.3%
[4]; plasma, ref Takano et al., 2009a
  ATX IC50 in occupancy study using [18F]F-MeNER-D2: 0.016 µg/mL
[5]; after 100 mg of ATX, ref Logan et al., 2007
  Reduction of [11C]MRB average VT in the occipital cortex: 10%
[6]; 25 mg oral ATX
  Plasma levels of ATX: 116 ng/mL
[6]; 50 mg oral ATX
  Plasma levels of ATX: 206 ng/mL
[6]; 100 mg oral ATX
  Plasma levels of ATX: 421 ng/mL
[7]; ATX IC50 using BPF, caudate as reference region, plasma concentration, rSE 16%
  pIC50: 7.13
[7]; all monkeys, increasing ATX infusion doses
  Effect of ATX on [11C]MRB binding (VT/fP) in NET-rich regions: decreased in a dosedependent manner; also recorded: inhibited in a dose-dependent manner
[7]; monkey 1, high-dose scan
  ATX occupancy estimate (Lassen plot): 86±13%
[7]; monkey 1, low-dose scan
  ATX occupancy estimate (Lassen plot): 31±10%
[7]; monkey 1, medium-dose scan
  ATX occupancy estimate (Lassen plot): 56±7%
[7]; monkey 2 (only medium-dose scan acquired)
  ATX occupancy estimate (Lassen plot): 65±18%
[7]; monkey 3, high-dose scan
  ATX occupancy estimate (Lassen plot): 82±6%
[7]; monkey 3, low-dose scan
  ATX occupancy estimate (Lassen plot): 39±14%
[7]; monkey 3, medium-dose scan
  ATX occupancy estimate (Lassen plot): 63±7%
[7]; rhesus monkey, read-out: ATX ED50, dose
  ED50: 0.13 mg/kg
[7]; [12]
  receptor occupancy at 0.012 µg/mL: 27%
  receptor occupancy at 0.132 µg/mL: 80%

## COc1ccccc1OC(c1ccccc1)C1CNCCO1 (centres unmarked) [MRB]
[8]
  pKd: 8.60

## [11CH3]Oc1ccccc1O[C@@H](c1ccccc1)[C@@H]1CNCCO1 [[^11C]MRB, (S,S)-[^11C]methylreboxetine]
[9]; 20 min post-injection
  Fraction of unmetabolized [11C]MRB in plasma: 42±8%
[9]; 90 min post-injection
  Fraction of unmetabolized [11C]MRB in plasma: 25±4%
[9]; throughout the scans
  Whole blood to plasma radioactivity concentration ratio: 0.94±0.13
[10]
  Change of plasma free fraction fP from first to second scan of the day: +17%±10
[10]; monkey #1
  Day-to-day variability of plasma free fraction fP: −16%
[10]; monkey #3
  Day-to-day variability of plasma free fraction fP: −68%
[11]; [13]
  Distribution Volume VT, Caudate: 6.2 mL/cm^3 and 2.1 mL/cm^3
  Distribution Volume VT, Midbrain: 9.0 mL/cm^3 and 3.0 mL/cm^3
  Distribution Volume VT, Putamen: 2.4 mL/cm^3 and 6.8 mL/cm^3
[11]; [14]
  Distribution Volume VT, Anterior Cingulate: 11.0 mL/cm^3 and 8.7 mL/cm^3 and 8.3 mL/cm^3
  Distribution Volume VT, Brainstem: 11.5 mL/cm^3 and 7.3 mL/cm^3 and 8.2 mL/cm^3
  Distribution Volume VT, Caudate: 8.7 mL/cm^3 and 6.5 mL/cm^3 and 6.3 mL/cm^3
  Distribution Volume VT, Midbrain: 10.1 mL/cm^3 and 7.5 mL/cm^3 and 7.8 mL/cm^3
  Distribution Volume VT, Occipital: 8.2 mL/cm^3 and 6.4 mL/cm^3 and 5.6 mL/cm^3
  Distribution Volume VT, Putamen: 7.2 mL/cm^3 and 9.9 mL/cm^3 and 8.7 mL/cm^3
  Distribution Volume VT, Thalamus: 11.6 mL/cm^3 and 8.2 mL/cm^3 and 8.5 mL/cm^3
[11]; [15]
  Distribution Volume VT, Anterior Cingulate: 13.3 mL/cm^3 and 10.1 mL/cm^3 and 10.9 mL/cm^3
  Distribution Volume VT, Brainstem: 16.3 mL/cm^3 and 10.2 mL/cm^3 and 11.1 mL/cm^3
  Distribution Volume VT, Midbrain: 13.3 mL/cm^3 and 10.5 mL/cm^3 and 9.4 mL/cm^3
  Distribution Volume VT, Occipital: 8.4 mL/cm^3 and 6.6 mL/cm^3 and 6.4 mL/cm^3
  Distribution Volume VT, Putamen: 6.3 mL/cm^3 and 8.9 mL/cm^3 and 6.6 mL/cm^3
  Distribution Volume VT, Thalamus: 15.5 mL/cm^3 and 10.7 mL/cm^3 and 12.7 mL/cm^3
[11]; Baseline, Day 1, MA1 t*=30 min, one row per monkey #1-#3
  Distribution Volume VT, Caudate: 7.7 mL/cm^3 and 6.5 mL/cm^3 and 5.9 mL/cm^3
[11]; Bmax/Kd set to zero
  VND/fP in the putamen: 30 mL/cm^3
[11]
  Global VND/fP estimate (four NET-rich regions): 19±4 mL/cm^3
[11]; listed as [^11C] MRB
  Global VND/fP estimate (four NET-rich regions): 19 mL/cm^3
[11]; Eq. 5, rSE 15%
  VND/fP estimate (four high binding regions plus occipital cortex): 19± 3 mL/cm^3
[11]; baseline VT/fP divided by global VND/fP, minus one, n=3
  Binding potential BPND in the thalamus: 1.8±0.3
[11]; computed from in vitro Kd 2.5 nM, NET density 23–72 nM and fND
  Expected value of BPND in the thalamus: 0.46–1.44
[11]; fND=fP/VND, from VND/fP 19 mL/cm^3
  Tissue free fraction fND: ~5%
[11]; n=2, unit not given
  VT/fP after blockade by the highest dose of ATX, anterior cingulate cortex: 24±3
  VT/fP after blockade by the highest dose of ATX, brainstem: 24±1
  VT/fP after blockade by the highest dose of ATX, midbrain: 23±1
  VT/fP after blockade by the highest dose of ATX, thalamus: 26±3
[11]; n=3
  Normalized distribution volume VT/fP at baseline, caudate nucleus: 28±3 mL/cm^3
  Normalized distribution volume VT/fP at baseline, occipital cortex: 30±2 mL/cm^3
  Normalized distribution volume VT/fP at baseline, putamen: 30±2 mL/cm^3
[11]; or a higher non-specific binding
  Specific binding in the NET-poor regions (caudate, putamen and occipital): ≤ 30%

## [2H]C([2H])([18F])Oc1ccccc1O[C@@H](c1ccccc1)[C@H]1CNCCO1 [[^18F]MeNER-D2]
[4]; ref Seneca et al., 2006
  BPND in the thalamus: 0.26±0.06
[4]; ref Takano et al., 2009a,b
  BPND in the thalamus: 0.7±0.1

## COC(=O)C(c1ccccc1)C1CCCCN1 (centres unmarked) [methylphenidate]
[5]; [16]
  Reduction of [11C]MRB VT in the occipital cortex: 9±17%
  Reduction of [11C]MRB VT/fP in the occipital cortex: 5±15%
